Values belong to the substance of their own block, whether it stands above or below them. Ends that are not written are not given here.
Experiments:
PAI-1 [1] = molecular target: T1, PAI-1 (Homo sapiens, UniProt P05121); test: Kinetics of peptide annealing: residual PAI inhibitory activity assayed with β-trypsin and S-2222; type: biochemical; settings: for IC50: FIG. 2, read-out: IC50 for the inactivation of PAI-1; for kobs / k: 25° C.; for half-life of PAI-1 decreased to: summary of Example 2, peptide concentration not given
T1 construct: made in house; host or cells: E. coli (vector pET3a)
Method: PAI-1 (6.4 μM) was incubated with increasing concentrations of each peptide at 23° C. and the (T1/2) of PAI-1 inactivation was determined by measuring the PAI-1 activity remaining over time.
Peptides were dissolved in 1 mM HCl+1% TWEEN-80 (the three PAI peptides) (SEQ ID NOS: 1-3), or in 0.1M HEPES (SEQ ID NOS: 4-5), 0.1M NaCl, 0.1% PEG-8000, pH […] (the two consensus peptides). Peptides were annealed to active PAI by incubation of active PAI in 0.1M HEPES, 0.1M NaCl, 0.1% PEG-8000, pH 7.4 with a peptide in its solvent. Ten percent of the final incubation mixture consisted of the peptide solvent. Incubation was carried out at 25° C. until no PAI inhibitory activity remained as determined by kinetics rate assays with trypsin, described below. The final concentration of PAI in the incubation mixture was either 0.9 μM (for kinetics assays) or 6.3 μM (for gels and purification). The peptide concentrations varied greatly due to the individual solubilities and rates of insertion of each peptide. These concentrations are given in the legends of the appropriate figures.
During annealing of 0.9 μM PAI with a peptide, the residual inhibitory activity of PAI was measured after varying incubation times by assaying an aliquot of the sample with β-trypsin. Trypsin (1 nM final concentration) was added to the chromogenic substrate S-2222 (950 μM) with 27 nM PAI sample. The absorbance at 405 nm was measured continuously for at least 12.5 min in a Shimadzu UV-265 UV-visible spectrophotometer. The pseudo-first order rate constant of trypsin is an indirect measure of the amount of PAI that has lost inhibitory activity due either to annealing or to becoming latent. The rate constant of controls containing the peptide solvent but no peptide was subtracted from that of the experimental assays in order to correct for the effect of the simultaneous change of PAI from the active to the latent state.

PAI-1 [2] = molecular target: T1, PAI-1; test: as above; type: biochemical; settings: for lowest PAI-1 functional half-life obtained with increasing concentrations of peptide: 9.0 hr in the absence of peptide
PAI-1 [3] = molecular target: T1, PAI-1; test: Native gel electrophoresis of PAI incubated with peptide; type: binding
Method: SDS-polyacrylamide gel electrophoresis (SDS-PAGE) under nonreducing conditions was carried out according to the method of Laemmli (Laemmli, 1970) on 10% gels. Native gel electrophoresis with 5% gels was carried out by omitting SDS and boiling from Laemmli's method. All gels were stained with Coomassie brilliant blue. Gels of PAI-peptide samples were scanned with an LKB Ultroscan XL Laser Densitometer to determine the relative amounts of peptide-annealed and latent PAI.
Four of the five peptides have a net negative charge due to glutamic acid residues and the free carboxy terminus (FIG. 1). The wtPAI 8-mer has a net -1 charge (the carboxy terminus). The V→E PAI 8-mer (SEQ ID NO:3) and consensus 8-mer (SEQ ID NO:4) each have a -2 charge (the glutamic acid residue and the carboxyl group). […] The PAI 14-mer (SEQ ID NO:1) is uncharged since it contains no glutamic acid and the arginine and carboxyl groups neutralize each other. Because of the negative charges of 4 of the peptides, native gels of PAI annealed to these peptides should show a band which migrates more quickly than the band representative of free active PAI. Similarly, if one of these peptides is incubated with PAI but fails to form a strong interaction with PAI, native gels should show a band which migrates identically to the free PAI.

normal human plasma = test: Activated partial thromboplastin time (APTT) in normal human plasma, with porcine coronary thrombus extract; type: biochemical
Method: Platelets contain several factors that inhibit heparin, including platelet factor 4, heparatinase, and histidine-rich glycoprotein. In an attempt to study potential heparin resistance within the microenvironment of the coronary thrombus the coronary thrombi previously analyzed for PAI-1 content were also assessed for their capacity to inhibit heparin in vitro (Eitzman et al., 1994). Pharmaceutical grade, unfractionated heparin was added to normal human plasma in sufficient quantity (0.12 U/mL) to prolong the activated partial thromboplastin time (APTT) to approximately 2× control. APTT determinations were then repeated after the addition of 2.5 μL of thrombus extract per 100 μL of heparinized plasma.
Similar experiments were also performed using recombinant hirudin as anticoagulant. In these experiments, hirudin (0.17 μg/mL) was used to prolong the APTT to approximately twice control values. However, unlike the case with heparin, thrombus extracts had no effect on capacity of hirudin to prolong the APTT (FIG. 9a).

T1 sequence (P05121 24-402): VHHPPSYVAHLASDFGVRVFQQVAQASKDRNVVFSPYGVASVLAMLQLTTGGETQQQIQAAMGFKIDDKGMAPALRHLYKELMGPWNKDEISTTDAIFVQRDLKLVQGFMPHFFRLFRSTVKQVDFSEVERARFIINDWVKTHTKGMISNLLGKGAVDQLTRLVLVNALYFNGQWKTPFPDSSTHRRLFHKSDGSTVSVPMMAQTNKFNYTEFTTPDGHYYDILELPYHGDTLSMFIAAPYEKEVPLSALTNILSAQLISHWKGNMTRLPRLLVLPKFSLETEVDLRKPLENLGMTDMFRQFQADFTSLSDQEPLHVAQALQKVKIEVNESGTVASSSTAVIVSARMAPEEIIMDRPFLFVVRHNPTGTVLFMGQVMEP

Substance: Ac-TEASSSTA [SEQ ID NO: 3, Thr-Glu-Ala-Ser-Ser-Ser-Thr-Ala]
IC50 (PAI-1 [1]): 1600 µM | kobs (PAI-1 [1]; peptide .05 mM): .090 h⁻¹ | k (PAI-1 [1]; peptide .1 mM): .35 M⁻¹ s⁻¹ | kobs (PAI-1 [1]; peptide .246 mM): .33 h⁻¹ | k (PAI-1 [1]; peptide .4 mM): .33 M⁻¹ s⁻¹ | kobs (PAI-1 [1]; peptide .6 mM): .98 h⁻¹ | half-life of PAI-1 decreased to (PAI-1 [1]): 1.2 h | electrophoretic mobility of active PAI incubated with peptide, native gel (PAI-1 [3]): Only a single major band | lowest PAI-1 functional half-life obtained with increasing concentrations of peptide (PAI-1 [2]; 25° C.): 1.2 h | k (PAI-1 [2]; peptide .05 mM, 25° C.): .50 M⁻¹ s⁻¹ | t1/2 of PAI-1 inactivation (PAI-1 [2]; peptide .05 mM, 25° C.): 7.7 h | kobs (PAI-1 [2]; peptide .1 mM, 25° C.): .13 h⁻¹ | t1/2 of PAI-1 inactivation (PAI-1 [2]; peptide .1 mM, 25° C.): 5.5 h | k (PAI-1 [2]; peptide .15 mM, 25° C.): .37 M⁻¹ s⁻¹ | kobs (PAI-1 [2]; peptide .15 mM, 25° C.): .20 h⁻¹ | t1/2 of PAI-1 inactivation (PAI-1 [2]; peptide .15 mM, 25° C.): 3.5 h | k (PAI-1 [2]; peptide .2 mM, 25° C.): .40 M⁻¹ s⁻¹ | kobs (PAI-1 [2]; peptide .2 mM, 25° C.): .28 h⁻¹ | t1/2 of PAI-1 inactivation (PAI-1 [2]; peptide .2 mM, 25° C.): 2.4 h | k (PAI-1 [2]; peptide .246 mM, 25° C.): .37 M⁻¹ s⁻¹ | t1/2 of PAI-1 inactivation (PAI-1 [2]; peptide .246 mM, 25° C.): 2.1 h | k (PAI-1 [2]; peptide .3 mM, 25° C.): .39 M⁻¹ s⁻¹ | kobs (PAI-1 [2]; peptide .3 mM, 25° C.): .42 h⁻¹ | t1/2 of PAI-1 inactivation (PAI-1 [2]; peptide .3 mM, 25° C.): 1.7 h | kobs (PAI-1 [2]; peptide .4 mM, 25° C.): .48 h⁻¹ | t1/2 of PAI-1 inactivation (PAI-1 [2]; peptide .4 mM, 25° C.): 1.4 h | k (PAI-1 [2]; peptide .5 mM, 25° C.): .44 M⁻¹ s⁻¹ | kobs (PAI-1 [2]; peptide .5 mM, 25° C.): .79 h⁻¹ | t1/2 of PAI-1 inactivation (PAI-1 [2]; peptide .5 mM, 25° C.): .87 h | k (PAI-1 [2]; peptide .6 mM, 25° C.): .45 M⁻¹ s⁻¹ | t1/2 of PAI-1 inactivation (PAI-1 [2]; peptide .6 mM, 25° C.): .71 h

Substance: heparin
shortening of the APTT by thrombus extract (normal human plasma; 2.5 μL of thrombus extract per 100 μL of heparinized plasma): approximately 20 seconds | prolongation of the APTT (normal human plasma; heparin 0.12 U/mL): approximately 2 × control

Substance: Ac-TVASSSTA [SEQ ID NO: 2, Thr-Val-Ala-Ser-Ser-Ser-Thr-Ala]
IC50 (PAI-1 [1]): 230 µM | half-life of PAI-1 decreased to (PAI-1 [1]): 0.717 h | electrophoretic mobility of active PAI incubated with peptide, native gel (PAI-1 [3]): two bands | lowest PAI-1 functional half-life obtained with increasing concentrations of peptide (PAI-1 [2]; 25° C.): 0.7 h | t1/2 of PAI-1 (PAI-1 [2]; peptide 55 μM, 25° C.): over 400 min | k (PAI-1 [2]; peptide .015 mM, 25° C.): 1.7 M⁻¹ s⁻¹ | kobs (PAI-1 [2]; peptide .015 mM, 25° C.): .093 h⁻¹ | t1/2 of PAI-1 inactivation (PAI-1 [2]; peptide .015 mM, 25° C.): 7.5 h | k (PAI-1 [2]; peptide .025 mM, 25° C.): .99 M⁻¹ s⁻¹ | kobs (PAI-1 [2]; peptide .025 mM, 25° C.): .089 h⁻¹ | t1/2 of PAI-1 inactivation (PAI-1 [2]; peptide .025 mM, 25° C.): 7.8 h | k (PAI-1 [2]; peptide .045 mM, 25° C.): 6.9 M⁻¹ s⁻¹ | kobs (PAI-1 [2]; peptide .045 mM, 25° C.): 1.1 h⁻¹ | t1/2 of PAI-1 inactivation (PAI-1 [2]; peptide .045 mM, 25° C.): .62 h | k (PAI-1 [2]; peptide .064 mM, 25° C.): 42 M⁻¹ s⁻¹ | kobs (PAI-1 [2]; peptide .064 mM, 25° C.): 9.6 h⁻¹ | t1/2 of PAI-1 inactivation (PAI-1 [2]; peptide .064 mM, 25° C.): .072 h

Substance: hirudin
effect of thrombus extracts on capacity to prolong the APTT (normal human plasma; hirudin 0.17 μg/mL): no effect | prolongation of the APTT (normal human plasma; hirudin 0.17 μg/mL): approximately twice

The next lines start with the values.

IC50 (PAI-1 [1]): 1600 µM | kobs (PAI-1 [1]; peptide 2.5 mM): .21 h⁻¹ | kobs (PAI-1 [1]; peptide 5.04 mM): .38 h⁻¹ | half-life of PAI-1 decreased to (PAI-1 [1]): 1.3 h | lowest PAI-1 functional half-life obtained with increasing concentrations of peptide (PAI-1 [2]; 25° C.): 1.2 h | k (PAI-1 [2]; peptide 1.5 mM, 25° C.): .024 M⁻¹ s⁻¹ | kobs (PAI-1 [2]; peptide 1.5 mM, 25° C.): .13 h⁻¹ | t1/2 of PAI-1 inactivation (PAI-1 [2]; peptide 1.5 mM, 25° C.): 5.4 h | k (PAI-1 [2]; peptide 2.5 mM, 25° C.): .024 M⁻¹ s⁻¹ | t1/2 of PAI-1 inactivation (PAI-1 [2]; peptide 2.5 mM, 25° C.): 3.3 h | k (PAI-1 [2]; peptide 3.5 mM, 25° C.): .022 M⁻¹ s⁻¹ | kobs (PAI-1 [2]; peptide 3.5 mM, 25° C.): .28 h⁻¹ | t1/2 of PAI-1 inactivation (PAI-1 [2]; peptide 3.5 mM, 25° C.): 2.5 h | k (PAI-1 [2]; peptide 5.04 mM, 25° C.): .021 M⁻¹ s⁻¹ | t1/2 of PAI-1 inactivation (PAI-1 [2]; peptide 5.04 mM, 25° C.): 1.8 h | k (PAI-1 [2]; peptide 7 mM, 25° C.): .017 M⁻¹ s⁻¹ | kobs (PAI-1 [2]; peptide 7 mM, 25° C.): .44 h⁻¹ | t1/2 of PAI-1 inactivation (PAI-1 [2]; peptide 7 mM, 25° C.): 1.6 h | k (PAI-1 [2]; peptide 9 mM, 25° C.): .017 M⁻¹ s⁻¹ | kobs (PAI-1 [2]; peptide 9 mM, 25° C.): .54 h⁻¹ | t1/2 of PAI-1 inactivation (PAI-1 [2]; peptide 9 mM, 25° C.): 1.3 h | k (PAI-1 [2]; peptide 11 mM, 25° C.): .015 M⁻¹ s⁻¹ | kobs (PAI-1 [2]; peptide 11 mM, 25° C.): .58 h⁻¹ | t1/2 of PAI-1 inactivation (PAI-1 [2]; peptide 11 mM, 25° C.): 1.2 h
Substance: Ac-TEAAAATG [SEQ ID NO: 4, Thr-Glu-Ala-Ala-Ala-Ala-Thr-Gly]

kobs (PAI-1 [1]; peptide 1 mM): .097 h⁻¹ | half-life of PAI-1 decreased to (PAI-1 [1]): 0.2 h | half-life of PAI inactivation (PAI-1 [2]; 0.9 μM PAI, 1.2 mM peptide): about 12 min | k (PAI-1 [2]; peptide 1 mM, 25° C.): .027 M⁻¹ s⁻¹ | t1/2 of PAI-1 inactivation (PAI-1 [2]; peptide 1 mM, 25° C.): 7.2 h | k (PAI-1 [2]; peptide 1.3 mM, 25° C.): .75 M⁻¹ s⁻¹ | kobs (PAI-1 [2]; peptide 1.3 mM, 25° C.): 3.4 h⁻¹ | t1/2 of PAI-1 inactivation (PAI-1 [2]; peptide 1.3 mM, 25° C.): .20 h
Substance: Ac-TEAAAATGAAATGR [SEQ ID NO: 5, TEAAAATGAAATGR]
